Measured values: paper PMC10771590, “Pathway crosstalk between the central metabolic and heme biosynthetic pathways in Phanerochaete chrysosporium” (Applied Microbiology and Biotechnology, 2024)
pKi: −log10 of the molar value. Where two headings read alike, the source gives them in different places.

Tests used:
[1] = tested on: Glyceraldehyde 3-phosphate dehydrogenase (GAPDH) of Plasmodium falciparum; set-up: method as in Campanale et al. 2003; conditions: ref Campanale et al. 2003; cited from earlier work
[2] = molecular target: T1, recombinant PcGAPDH (rPcGAPDH) (Phanerodontia chrysosporium, UniProt Q01982); test: GAPDH assay and steady-state kinetic analysis; format: biochemical, Phanerochaete chrysosporium; conditions: rPcGAPDH
T1 construct: 6xHis-tag (pET-30) (cleaved yes); made in house; host or cells: E. coli BL21(DE3)pLysS
Method: GAPDH assay was performed as previously described (Campanale et al. [2003]). For steady-state kinetic analysis, the reaction mixture (1 ml) contained 40 mM phosphate (pH 7.6), 5.2 μg recombinant PcGAPDH (rPcGAPDH), 40 mM triethanolamine, 5 mM NAD^+, and 0.6–2 mM glyceraldehyde 3-phosphate (GAP3). Reactions were monitored by the increase in absorbance at 340 nm (ε 6220 M^–1 cm^–1) for 1 min, and initial velocities were determined. Inhibitory experiments were done in the presence of 0–2.5 μM hemin. To examine the effect of hemin on GAPDH kinetics, PcGAPDH was incubated with either buffer (control) or hemin for 5 min prior to initiating the reaction. Kinetic parameters were determined from Lineweaver–Burk plots, and Ki values were determined from the secondary plot of each slope of the Lineweaver–Burk plots. Immediately prior to use, hemin was dissolved at 10 mM in 0.1 M NaOH and diluted with 40 mM Tris–HCl (pH 7.5).
Fig. 2 Heterologous expression of PcGAPDH and inhibitory effect of hemin on GAPDH reaction. A M, molecular weight marker; lane 1, rPcGAPDH-His-tag; lane 2, His-tag-cleaved rPcGAPDH. B Reaction mixtures containing 2.5 nM rPcGAPDH, 40 mM phosphate (pH 7.6), 40 mM triethanolamine, 5 mM NAD^+, and 0.6–2 mM GAP3. […] Inset: secondary plots of each slope of Lineweaver–Burk plots against the concentration of hemin for determining inhibition constants. C Reaction mixtures containing 2.5 nM rPcGAPDH, 40 mM phosphate (pH 7.6), 40 mM triethanolamine, 5 mM NAD^+, and 0.6 mM GAP3. Reactions were started by adding substrates followed by 5-min incubation with either buffer or 1 μM inhibitor (hemin or protoporphyrin IX, PPIX). […] All experiments were performed in triplicate. Bars indicated as mean values ± standard deviation (error bars)

[3] = molecular target: T2, rPcCS (mitochondrial citrate synthase) (Phanerodontia chrysosporium, UniProt Q0EAA7); test: CS assay (DTNB method) and steady-state kinetic analysis; format: biochemical, Phanerochaete chrysosporium; conditions: for pKi: 0–2.5 μM hemin
T2 sequence (Q0EAA7 1-446): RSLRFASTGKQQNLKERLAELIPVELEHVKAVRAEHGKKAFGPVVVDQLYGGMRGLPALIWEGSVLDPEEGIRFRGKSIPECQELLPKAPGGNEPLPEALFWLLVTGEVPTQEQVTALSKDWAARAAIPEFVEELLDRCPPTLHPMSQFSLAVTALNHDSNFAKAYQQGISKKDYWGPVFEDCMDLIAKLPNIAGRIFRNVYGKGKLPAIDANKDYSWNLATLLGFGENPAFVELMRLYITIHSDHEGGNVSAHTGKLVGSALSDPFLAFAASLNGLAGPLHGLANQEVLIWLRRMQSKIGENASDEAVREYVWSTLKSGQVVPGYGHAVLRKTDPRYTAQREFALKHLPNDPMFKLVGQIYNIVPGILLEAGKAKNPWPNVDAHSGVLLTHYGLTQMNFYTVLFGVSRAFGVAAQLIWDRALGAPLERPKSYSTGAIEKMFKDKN
Method: CS was assayed by the 5, 5′-dithiobis-2-nitrobenzoic acid (DTNB) method, as described previously (Srere et al. [1963]). […] CS catalyzes the reaction of OAA with AcCoA, generating citrate and CoA. Thus, reactions were monitored by the amount of released CoA, which was followed at 412 nm (ε 13 600 M^–1cm^–1) by the formation of 2-nitro-5-mercaptobenzoic acid, via the reaction of CoA with DTNB. Reactions were monitored for 1 min, and initial velocity was determined. […] Inhibition studies were carried out in the presence of 0–2.5 μM hemin as described above. Kinetic parameters were determined from Lineweaver–Burk plots, and Ki values were determined from the secondary plot of the slopes of the Lineweaver–Burk plots. Hemin and OAA solutions were prepared immediately prior to use.
Fig. 5 Inhibitory effect of hemin on PcCS reaction. […] Reaction mixtures contained 1.5 nM rPcCS, 40 mM Tris-HCl (pH 8.5), and 120 μM DTNB. Fixed substrate was added at 12 μM and variable substrate at 3–12 μM. […] Insets: secondary plots of each slope of Lineweaver–Burk plots against the concentration of hemin for determining inhibition constants.

[4] = molecular target: T3, pig CS (Sus scrofa, UniProt P00889); test: Inhibitory effect of hemin on pig CS (SsCS) reaction; format: biochemical; conditions: 0–5.7 µM hemin, incubated 0 or 60 min at 4 °C (Supplemental Fig. S2)
T3 sequence (P00889 28-464): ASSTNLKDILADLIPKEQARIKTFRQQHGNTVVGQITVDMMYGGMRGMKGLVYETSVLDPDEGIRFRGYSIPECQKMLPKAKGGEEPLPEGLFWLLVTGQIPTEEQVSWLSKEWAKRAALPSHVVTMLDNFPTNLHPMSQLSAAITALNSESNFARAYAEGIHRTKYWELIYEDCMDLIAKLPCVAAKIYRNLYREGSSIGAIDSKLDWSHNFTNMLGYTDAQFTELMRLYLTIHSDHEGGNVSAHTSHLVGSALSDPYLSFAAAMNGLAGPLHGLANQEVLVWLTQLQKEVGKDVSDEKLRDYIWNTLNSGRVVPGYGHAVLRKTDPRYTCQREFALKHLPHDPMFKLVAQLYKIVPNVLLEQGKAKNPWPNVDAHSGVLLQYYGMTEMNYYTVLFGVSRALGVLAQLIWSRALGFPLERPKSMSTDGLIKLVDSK
From the text: One heme-responsive-motif (HRM) was found in PcCS, which could be a possible heme-binding site (Lathrop and Timko [1993]; Zhang and Guarente [1995]; Ishikawa et al. [2005]; Yamanaka et al. [2003]). From the alignment analysis, only certain fungi contain HRM (CP motif) in their CSs (Supplemental Fig. S1). No mammalian CS contains HRM (Supplemental Fig. S1). […] Furthermore, the His residue corresponding to His^347 in PcCS was conserved in either mammalian or fungal CSs. Combining all the data, the heme-binding site is concluded to be His^347 of PcCS.
Concentration of hemin (nM)
Figure S2 Inhibitory effect of hemin on SsCS reaction. Reaction mixtures containing
1.5 nM SsCS, 40 mM Tris/HCl (pH 8.5) and 0, 0.5, 1.2 and 5.7 µM hemin were incubated […]

T1 sequence (Q01982 whole entry): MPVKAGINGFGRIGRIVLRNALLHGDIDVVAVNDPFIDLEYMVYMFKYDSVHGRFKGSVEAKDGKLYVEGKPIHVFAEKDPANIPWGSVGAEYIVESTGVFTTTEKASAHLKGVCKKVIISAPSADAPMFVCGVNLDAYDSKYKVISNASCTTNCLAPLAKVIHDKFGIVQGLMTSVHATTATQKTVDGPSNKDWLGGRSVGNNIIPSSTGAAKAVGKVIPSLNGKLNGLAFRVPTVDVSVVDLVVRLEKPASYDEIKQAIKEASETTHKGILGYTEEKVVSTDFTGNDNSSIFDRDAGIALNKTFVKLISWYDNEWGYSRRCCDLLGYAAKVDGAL

Question: What does the source list for `C=CC1=C(C)c2cc3[nH]c(cc4nc(cc5[nH]c(cc1n2)c(C)c5CCC(=O)O)C(CCC(=O)O)=C4C)c(C)c3C=C.[Fe+3]` [hemin]?
Answer: pKi [1]: 6.70; inhibitory pattern (steady-state analysis) ([2]; GAP3 as variable substrate): mixed type; pKi ([2]; pH 7.6, 5 mM NAD+, 0.6–2 mM GAP3, 0–2.5 μM hemin, read-out: Ki (inhibition constant from secondary plot)): 6.00; inhibitory effect relative to reported inhibitors of other eukaryotic CSs ([3]; hemin on PcCS versus inhibition constants larger than 0.1 mM): 10 times; mode of inhibition for AcCoA ([3]; rPcCS, double-reciprocal plots): competitive inhibitor; mode of inhibition for OAA ([3]; rPcCS, double-reciprocal plots): non-competitive inhibitor; pKi ([3]; read-out: Ki AcCoA, rPcCS, pH 8.5, AcCoA as variable substrate): 5.24; pKi ([3]; read-out: Ki OAA, rPcCS, pH 8.5, OAA as variable substrate): 5.06; effect on pig CS activity [4]: inhibited
